Source: EP0273199A2, “Uses of 3,4-diphenyl piperidine derivatives or medicines, 3,4-diphenyl piperidine derivatives, and process for their preparation” (LABORATOIRES HOECHST S.A., priority 1986, dated 1988)
Several values for one entry are separate records, joined by “and”; a condition that tells them apart may be missing. Equal entries are not always repeated. Structures can show the parent of a compound that is named as a salt. Where two headings read alike, the source gives them in different places.

Columns and labels:
[1] = tested on: durch Reserpin induzierten Hypothermie; experiment: Antireserpine activity (reserpine-induced hypothermia); assay type: in vivo, Maus
Method: Zur Zeit 0 erhalten die Mäuse intraperitoneal Reserpin (2,5 mg/kg).
4 Stunden danach, wenn die Hypothermie genügend stark erscheint (30 bis 33°C), verabreicht man die verschiedenen zu untersuchenden Verbindungen i.p. oder p.o. Alle 30 Minuten über einen Zeitraum von 2 Stunden mißt man die Rektaltemperatur mit einer auf konstante Tiefe eingeführten, ein Thermoelement tragenden Sonde. Die Rektaltemperatur der mit verschiedenen erfindungsgemäßen Verbindungen behandelten Tiere wird mit der Temperatur einer Kontrollgruppe verglichen, die destilliertes Wasser auf die gleiche Weise wie die untersuchten Verbindungen erhält.
Die Akinesie (fehlende Bewegungen) und Ptose (Öffnungsgrad des Augenlids von 0 bis 4 nach Rubin u.a 1957) werden ebenfalls alle 30 Minuten über einen Zeitraum von 2 Stunden bewertet.
Die eine antidepressive Aktivität besitzenden Produkte wirken der durch Reserpin induzierten Hypothermie entgegen. Für jede Dosis der verabreichten Verbindung berechnet man die prozentuale Hemmung der Hypothermie.

Apomorphin 16 mg/kg = experiment: Antiapomorphine activity (apomorphine 16 mg/kg s.c., hypothermia); assay type: in vivo, Maus
Method: Zur Zeit 0 nach Ausgleich der Reaktaltemperaturen werden die Mäuse (6 pro Gruppe) in deren Beobachtung gestattende Einzelkäfige (11 x 3,5 x 4 cm) eingeetzt. 30 Minuten nach i.p. bzw. p.o. Verabreichung der Testsubstanz erhalten sie Apomorphin subkutan in einer Dosis von 16 mg/kg. Die Rektaltemperatur wird 30 Minuten nach dem Apomorphin gemessen. Die Kontrolltiere erhalten destilliertes Wasser statt der zu untersuchenden Verbindungen. Die bei diesen Kontrolltieren, die 16 mg/kg Apomorphin erhalten haben, beobachtete Hypothermie liegt im Durchschnitt bei 33°C. Für jede Verbindungsdosis berechnet man die prozentuale Hemmung der Hypothermie.

Toxizität des Yohimbins = experiment: Potentiation of yohimbine toxicity; assay type: in vivo, Maus; conditions: for minimal effective dose: Mus musculus, ip; for Erste wirksame Dosis Yohimbin: mouse, i.p.
Method: Wirkung auf die Toxizität des Yohimbins
Zur Zeit 0 erhalten die Mäuse entweder destilliertes Wasser oder verschiedene zu untersuchende Verbindungen i.p. 30 Minuten danach verabreicht man ihnen subkutan eine infratoxische Dosis von 25 mg/kg Yohimbinchlorhydrat.
Die Mortalität wird jede Stunde über einen Zeitraum von 4 Stunden verfolgt und dann nach 24 Stunden notiert.
Die eine antidepressive Aktivität besitzenden Produkte verursachen eine Potenzierung der Toxizität des Yohimbins.

Motoraktivität = experiment: Actimetry (motor activity, photocell actimeter); assay type: in vivo, Maus; conditions: mouse; direction of change of motor activity
Excerpt: Die Motoraktivität wird mittels Photozellenaktimetern bestimmt (Boissier und Simon, Arch. Int. Pharmacodyn. 1965, 158, 212-221).
Die Mäuse (10 oder ein Vielfaches von 10 pro Gruppe) werden unmittelbar nach i.p. Verabreichung der zu untersuchenden Verbindungen in das Aktimeter eingesetzt. Die Motoraktivität wird danach bis zur 60. Minute gemessen. De Zähler werden nach 30 Minuten abgelesen und dann auf 0 zurückgestellt und im Verlauf von 30 Minuten alle 10 Minuten abgelesen.
Die Beweglichkeit der mit den verschiedenen Verbindungen behandelten Tiere wird mit derjenigen einer destilliertes Wasser erhaltenden Kontrollgruppe verglichen.
Die eine psychostimulierende Aktivität besitzenden Produkte verursachen eine Zunahme der Beweglichkeit.

Maus [2] = experiment: Tail suspension test; assay type: in vivo; conditions: ip; mouse, i.p.; footnote of Tabelle 1; read-out: tail suspension test= positiv ab
Excerpt: Schwanzaufhängungstest an der Maus wie von Stéru u.a. beschrieben (Psychopharmacology 85, 367-370, 1985).
Die Substanzen werden intraperitoneal 30 Minuten vor dem Test verabreicht und die Tiese isoliert (10 Mäuse pro Dosis).
Man bewertet die Dauer der Unbeweglichkeit, ausgedrückt in Sekunden über die 6 Minuten des Tests. Man untersucht auf eine Verkürzung dieser Unbeweglichkeitszeit.

L-5-Hydroxytryptophan = experiment: Potentiation of L-5-hydroxytryptophan effects (head twitches, tremor); assay type: in vivo, Maus; conditions: mouse, 1 mg/kg i.p., 30 min before L-5 HTP 4 mg/kg i.p.
Method: L-5 HTP induziert an der Maus ruckartige Bewegungen des Kopfes (Kopfzuckungen). Die zu untersuchenden Substanzen werden den Tieren (10 Mäuse pro Dosis) intraperitoneal 30 Minuten vor dem L-5 HTP (4 mg/kg intraperitoneal) verabreicht. Die ruckartigen Kopfbewegungen und der Tremor werden 1 Minutre lang alle 10 Minuten im Verlauf einer Stunde bewertet. Desimipramin und Indalpin sind die Kontrol-(Vergleichs-)verbindungen. Ein antidepressiver Effekt zeigt sich durch eine Zunahme der ruckartigen Kopfbewegungen und des Tremors.

Maus [3] = experiment: Hot plate test (licking and jumping), analgesia; assay type: in vivo
Method: Heizplattentest: Lecken und Springen, wie von Jacob und Blozovski beschrieben (Arch. Int. Pharmacodyn. 133, 296-209, 1961).
Die in Sekunden ausgedrückten Reaktionszeiten auf einer Heizplatte werden unter Berücksichtigung des Leckens der Vorderpfoten und Springen des Tieres als Kriterien bewertet. Die beiden Reaktionen werden am selben, anfänglich untrainierten Tier mit einer maximalen Ansprechzeit (Obergrenze) von 240 Sekunden beobachtet. Die Temperatur der Platte wird auf 56,6°C gehalten.
Morphin als positive Kontrolle wird subkutan und die übrigen Substanzen (mg/kg) werden intraperitoneal 30 Minuten vor dem Test verabreicht. Positives Ansprechen zeigt sich in einer Zunahme der Reaktionszeit.
Wird der schadensverhütenden Wirkung eine Substanz durch Naloxon entegengewirkt, so kann man schließen, daß die Substanz tatsächlich eine analgetische Wirkung besitzt.

[4] = Mus musculus, ip, read-out: Erste wirksame Dosis Reserpin, mouse, i.p., only or lowest value of the cell
[5] = Mus musculus, ip, read-out: Erste wirksame Dosis Apomorphin 16 mg/kg, mouse, i.p., only or lowest value of the cell
[6] = read-out: Erste wirksame Dosis Yohimbin, mouse, i.p., only or lowest value of the cell
[7] = ip, mouse, i.p., only or lowest value of the cell, read-out: Erste wirksame Dosis Reserpin
[8] = ip, mouse, i.p., only or lowest value of the cell, read-out: Erste wirksame Dosis Apomorphin 16 mg/kg
[9] = mouse, i.p., only or lowest value of the cell
[10] = Mus musculus, read-out: Erste wirksame Dosis Apomorphin 16 mg/kg, mouse, further value in the same cell, route not stated (lowest = i.p.; p.o. also tested)
[11] = only or lowest value of the cell
[12] = mouse, reaction time, 8 mg/kg i.p., plate 56,6°C
[13] = mouse, Tabelle 5a, Naloxon alone 0,5 mg/kg

For `Oc1ccc([C@@H]2CCNC[C@H]2c2ccccc2)cc1` (racemic) [7 (1.Stufe), trans-4-(4-Hydroxyphenyl)-3-phenylpiperidin-bromhydrat], the minimal effective dose [1, 4] was 32 mg/kg, the minimal effective dose (Apomorphin 16 mg/kg; [5]) was 0.5 mg/kg and the minimal effective dose (Toxizität des Yohimbins; [6]) was 4 mg/kg. For the same compound, the minimal effective dose (Toxizität des Yohimbins; read-out: Erste wirksame Dosis Yohimbin, mouse, further value in the same cell, route not stated (lowest = i.p.)) was 16 mg/kg and the Aktimetrie (Motoraktivität) was “↘”.

`COc1ccc([C@@H]2CCNC[C@H]2c2ccccc2)cc1` (racemic) [Beispiel 2, trans-4-(4-Methoxyphenyl)-3-phenylpiperidinchlorhydrat] was tested, and the minimal effective dose [1, 7] was 4 mg/kg, the minimal effective dose (Apomorphin 16 mg/kg; [8]) was 1 mg/kg and the minimal effective dose (Apomorphin 16 mg/kg; mouse, further value in the same cell, route not stated (lowest = i.p.; p.o. also tested), read-out: Erste wirksame Dosis Apomorphin 16 mg/kg) was 2 mg/kg. The Aktimetrie (Motoraktivität) was “↘” and the minimal effective dose (Maus [2]) was no less than 8 mg/kg.

`CC(=O)Oc1ccc([C@@H]2CCNC[C@H]2c2ccccc2)cc1` (racemic) [Beispiel 11, trans-4-(4-Acetoxyphenyl)-3-phenylpiperidinchlorhydrat] showed a minimal effective dose [1, 7] of 4 mg/kg, a minimal effective dose (Apomorphin 16 mg/kg; [8]) of 1 mg/kg and a minimal effective dose (Toxizität des Yohimbins; [6]) of 16 mg/kg.

`Cc1ccc([C@@H]2CCNC[C@H]2c2ccccc2)cc1` (relative stereo) [10 (Base), trans-4-(4-Methylphenyl)-3-phenylpiperidin] was tested, and the “Erste wirksame Dosis Reserpin” value [1, 9] was 16 mg/kg, the minimal effective dose (Apomorphin 16 mg/kg; [5]) was 16 mg/kg and the minimal effective dose (Apomorphin 16 mg/kg; [10]) was 32 mg/kg. For the same compound, the minimal effective dose (Toxizität des Yohimbins; [6]) was 16 mg/kg and the Aktimetrie (Motoraktivität) was “↘”.

For `Cc1ccc([C@@H]2CCNC[C@H]2c2ccccc2)cc1` (relative stereo) [10 (HCl-Salz), trans-4-(4-Methylphenyl)-3-phenylpiperidin], the minimal effective dose ([1]; Mus musculus, read-out: Erste wirksame Dosis Reserpin, mouse, further value in the same cell, route not stated (lowest = i.p.; p.o. also tested)) was 16 mg/kg, the “Erste wirksame Dosis Reserpin” value [1, 9] was 4 mg/kg and the “Erste wirksame Dosis Apomorphin 16 mg/kg” value (Apomorphin 16 mg/kg; [9]) was 16 mg/kg. The Aktimetrie (Motoraktivität) was “↘”.

In the case of `c1ccc([C@@H]2CCNC[C@H]2c2ccccc2)cc1` (relative stereo) [21 (HCl-Salz), trans-3,4-Diphenylpiperidin], the “Erste wirksame Dosis Reserpin” value [1, 9] is reported as 4 mg/kg, the “Erste wirksame Dosis Apomorphin 16 mg/kg” value (Apomorphin 16 mg/kg; [9]) is reported as 4 mg/kg and the “Erste wirksame Dosis Yohimbin” value (Toxizität des Yohimbins; [11]) is reported as 16 mg/kg. For the same compound, the Aktimetrie (Motoraktivität) was “↗”.

In the case of `Clc1ccc(C2CNCCC2c2ccccc2)cc1` (stereo not drawn) [8 (Base), trans-3-(4-Chlorphenyl)-4-phenylpiperidin], the minimal effective dose [1, 4] is reported as 8 mg/kg, the minimal effective dose (Apomorphin 16 mg/kg; [5]) is reported as 16 mg/kg and the Aktimetrie (Motoraktivität) is reported as “↘”.

In the case of `Clc1ccc(C2CNCCC2c2ccccc2)cc1` (stereo not drawn) [8 (HCl-Salz), trans-3-(4-Chlorphenyl)-4-phenylpiperidin], the “Erste wirksame Dosis Reserpin” value [1, 9] is reported as 4 mg/kg, the “Erste wirksame Dosis Apomorphin 16 mg/kg” value (Apomorphin 16 mg/kg; [9]) is reported as 8 mg/kg and the minimal effective dose (Toxizität des Yohimbins; [6]) is reported as 16 mg/kg. For the same compound, the Aktimetrie (Motoraktivität) was “↘”.

In the case of `Clc1ccc([C@@H]2CCNC[C@H]2c2ccccc2)cc1Cl` [15 (Base)], the “Erste wirksame Dosis Reserpin” value [1, 9] is reported as 0,5 mg/kg, the “Erste wirksame Dosis Apomorphin 16 mg/kg” value (Apomorphin 16 mg/kg; [9]) is reported as 0,5 mg/kg and the “Erste wirksame Dosis Yohimbin” value (Toxizität des Yohimbins; [11]) is reported as 4 mg/kg. For the same compound, the Aktimetrie (Motoraktivität) was “↗”.

With `Clc1ccc(C2CNCCC2c2ccccc2)cc1Cl` (stereo not drawn) [Beispiel 13, trans-3-(3,4-Dichlorphenyl)-4-phenyl-piperidin-maleinat] the minimal effective dose [1, 4] was 8 mg/kg, the minimal effective dose (Apomorphin 16 mg/kg; [5]) was 4 mg/kg and the minimal effective dose (Toxizität des Yohimbins; [6]) was 16 mg/kg. For the same compound, the Aktimetrie (Motoraktivität) was “↘”.

`Clc1ccc([C@@H]2CCNC[C@H]2c2ccccc2)cc1` [Beispiel 18] gave a minimal effective dose [1, 4] of 0.5 mg/kg, a minimal effective dose (Apomorphin 16 mg/kg; [5]) of 0.5 mg/kg and a minimal effective dose (Apomorphin 16 mg/kg; [10]) of 2 mg/kg. For the same compound, the minimal effective dose (Toxizität des Yohimbins; [6]) was 1 mg/kg and the Aktimetrie (Motoraktivität) was “↗”.

`c1ccc2c(CCC3CCNCC3)c[nH]c2c1` [Indalpin, reference compound] was tested, and the Tremor (L-5-Hydroxytryptophan) was 2,0 ± 0,7, the “ruckartige Kopfbewegungen” value (L-5-Hydroxytryptophan) was 4,1 ± 0,7 p < 0,01 and the Pfotenlecken (Maus [3]; [12]) was 8,4 ± 1,2 p < 0,02 Sekunden. For the same compound, the Sprünge (Maus [3]; [12]) was 132 ± 12 p ± 0,01 Sekunden.

For `CN1CC[C@]23c4c5ccc(O)c4O[C@H]2[C@@H](O)C=C[C@H]3[C@H]1C5` [Morphin, reference compound], the Pfotenlecken (Maus [3]; in vivo, sc, 2 mg/kg) was 8,1 ± 0,6 p < 0,01 Sekunden and the Sprünge (Maus [3]; in vivo, sc, 2 mg/kg) was 158 ± 17 p < 0,01 Sekunden.

In the case of `C=CCN1CC[C@]23c4c5ccc(O)c4O[C@H]2C(=O)CC[C@@]3(O)[C@H]1C5` [Naloxon, reference compound], the Pfotenlecken (Maus [3]; [13]) is reported as 5,5 ± 0,3 Sekunden and 5,2 ± 0,3 Sekunden and the Sprünge (Maus [3]; [13]) is reported as 63 ± 6 Sekunden and 67 ± 5 Sekunden.
